Measurements from ChEMBL document CHEMBL3414561, “Discovery of 4'-chloromethyl-2'-deoxy-3',5'-di-O-isobutyryl-2'-fluorocytidine (ALS-8176), a first-in-class RSV polymerase inhibitor for treatment of human respiratory syncytial virus infection” (J Med Chem, 2015).

How the values were obtained:
[1] = test system: Respiratory syncytial virus; test: Antiviral activity against Respiratory syncytial virus subgenomic replicon system in 395 HeLa cells assessed as reduction in viral replication after 7 days by renilla luciferase assay; format: functional, organism-based; conditions: human respiratory syncytial virus, 168 h
[2] = Cytotoxicity against human HeLa cells assessed as cell viability by CellTiter-Glo luminescent assay; format: cell-based
[3] = Inhibition of Respiratory syncytial virus RNA polymerase in crude RSV RNP complex assessed as inhibition of [33P]CMP incorporation into RNA chain

| EC50 [1] [nM] | IC50 [3] [nM] | Structure (SMILES) | CC50 [2] [nM] |
| --- | --- | --- | --- |
| 520 |  | [N-]=[N+]=N[C@]1(CO)O[C@@H](n2ccc(N)nc2=O)[C@@H](O)[C@@H]1O | > 100000 |
| 1120 |  | C#C[C@]1(CO)O[C@@H](n2ccc(N)nc2=O)[C@H](F)[C@@H]1O | > 100000 |
|  | 240 | [N-]=[N+]=N[C@]1(COP(=O)(O)OP(=O)(O)OP(=O)(O)O)O[C@@H](n2ccc(N)nc2=O)[C@H](O)[C@@H]1O |  |
| 12700 |  | CO[C@]1(CO)O[C@@H](n2ccc(N)nc2=O)[C@H](F)[C@@H]1O | > 100000 |
| 1910 |  | C=C[C@]1(CO)O[C@@H](n2ccc(N)nc2=O)[C@H](F)[C@@H]1O | > 100000 |
| > 100000 |  | Nc1ccn([C@@H]2O[C@@](CO)(CCl)[C@@H](O)[C@H]2O)c(=O)n1 | > 100000 |
| 130 |  | CCCCC(=O)OC[C@@]1(CCl)O[C@@H](n2ccc(N)nc2=O)[C@H](F)[C@@H]1OC(=O)CCCC | > 100000 |
|  | 200 | Nc1ccn([C@@H]2O[C@@](COP(=O)(O)OP(=O)(O)OP(=O)(O)O)(C3CC3)[C@@H](O)[C@H]2F)c(=O)n1 |  |
| 480 |  | Nc1ccn([C@@H]2O[C@@](CO)(CBr)[C@@H](O)[C@H]2F)c(=O)n1 | > 100000 |
| 670 |  | [N-]=[N+]=N[C@]1(CO)O[C@@H](n2ccc(N)nc2=O)[C@H](O)[C@@H]1O [4'-AZIDOCYTIDINE] | > 80000 |
| 270 |  | CCCCCCCCCCCC(=O)O[C@H]1[C@@H](F)[C@H](n2ccc(N)nc2=O)O[C@@]1(CO)CCl | > 89000 |
| 510 |  | CSC[C@]1(CO)O[C@@H](n2ccc(N)nc2=O)[C@H](F)[C@@H]1O | > 63000 |
| 40 |  | CC(C)[C@H](N)C(=O)OC[C@@]1(CCl)O[C@@H](n2ccc(N)nc2=O)[C@H](F)[C@@H]1O | > 100000 |
| 2140 |  | C[C@]1(CO)O[C@@H](n2ccc(N)nc2=O)[C@H](F)[C@@H]1O | > 100000 |
| 220 |  | CCCCCC(=O)OC[C@@]1(CCl)O[C@@H](n2ccc(N)nc2=O)[C@H](F)[C@@H]1OC(=O)CCCCC | > 100000 |
| > 100000 |  | Nc1ccn([C@@H]2O[C@@](CO)(CCl)[C@@H](O)[C@@H]2O)c(=O)n1 | > 100000 |
| 40 |  | CCC(=O)OC[C@@]1(CCl)O[C@@H](n2ccc(N)nc2=O)[C@H](F)[C@@H]1OC(=O)CC | > 100000 |
| 160 |  | CC(C)C(=O)O[C@H]1[C@@H](F)[C@H](n2ccc(N)nc2=O)O[C@@]1(CO)CCl | > 88000 |
| 750 |  | [N-]=[N+]=N[C@]1(CO)O[C@@H](n2ccc(N)nc2=O)C(F)(F)[C@@H]1O | > 100000 |
| 30 |  | CCCCCCCC(=O)OC[C@@]1(CCl)O[C@@H](n2ccc(N)nc2=O)[C@H](F)[C@@H]1O | > 100000 |
| 190 |  | [N-]=[N+]=N[C@]1(CO)O[C@@H](n2ccc(N)nc2=O)[C@H](F)[C@@H]1O | > 100000 |
| 280 |  | CCCCCCCC(=O)OC[C@@]1(CCl)O[C@@H](n2ccc(N)nc2=O)[C@H](F)[C@@H]1OC(=O)CCCCCCC | > 66000 |
| 560 |  | Nc1ccn([C@@H]2O[C@@](CO)(C3CC3)[C@@H](O)[C@H]2F)c(=O)n1 | > 100000 |
| 2690 |  | CCC[C@]1(CO)O[C@@H](n2ccc(N)nc2=O)[C@H](F)[C@@H]1O | > 100000 |
| 2640 |  | C=CC[C@]1(CO)O[C@@H](n2ccc(N)nc2=O)[C@H](F)[C@@H]1O | > 100000 |
| 100 |  | CC(C)C(=O)OC[C@@]1(CCl)O[C@@H](n2ccc(N)nc2=O)[C@H](F)[C@@H]1O | > 90000 |
| 220 |  | CCCCCCCC(=O)O[C@H]1[C@@H](F)[C@H](n2ccc(N)nc2=O)O[C@@]1(CO)CCl | > 70000 |
| > 100000 |  | Nc1ccn([C@@H]2O[C@@](CO)(CCl)[C@@H](O)[C@@H]2F)c(=O)n1 | > 100000 |
| 65000 |  | Nc1ccn([C@@H]2O[C@@](CO)(CCl)[C@@H](O)C2(F)F)c(=O)n1 | 62000 |
